Source: article PMC9519552, “Activation of the human insulin receptor by non-insulin-related peptides” (Nature Communications, 2022)
Where two headings read alike, the source gives them in different places. Positions of bridges follow the written chain, without caps; N, C: chain ends. Residues, ends and D or L forms follow the SMILES beside them.

Key:
[1] = target: T1, human holoIR-A over-expressed in HEK293 cells (Homo sapiens, UniProt P06213); test: Inhibition of hIR phosphorylation by peptides, co-incubated with BHI at its EC50 (ELISA); assay type: cell-based; settings: for hIRA Phosph IC50 Run 1 / hIRA Phosph IC50 Run 2 / hIRA Phosph IC50 Run 3: inhibition of insulin-stimulated phosphorylation; for hIRA Phosph IC50 Run 1: BHI at its EC50, run 1; for hIRA Phosph IC50 Run 2: BHI at its EC50, run 2; for hIRA Phosph IC50 Run 3: BHI at its EC50, run 3; for IC50: read-out: hIRA Phosph IC50 Mean
T1 construct: expressed in transfected cells; host or cells: HEK293, stably transfected
T1 sequence (P06213 28-1370 isoform P06213-2 limits assumed): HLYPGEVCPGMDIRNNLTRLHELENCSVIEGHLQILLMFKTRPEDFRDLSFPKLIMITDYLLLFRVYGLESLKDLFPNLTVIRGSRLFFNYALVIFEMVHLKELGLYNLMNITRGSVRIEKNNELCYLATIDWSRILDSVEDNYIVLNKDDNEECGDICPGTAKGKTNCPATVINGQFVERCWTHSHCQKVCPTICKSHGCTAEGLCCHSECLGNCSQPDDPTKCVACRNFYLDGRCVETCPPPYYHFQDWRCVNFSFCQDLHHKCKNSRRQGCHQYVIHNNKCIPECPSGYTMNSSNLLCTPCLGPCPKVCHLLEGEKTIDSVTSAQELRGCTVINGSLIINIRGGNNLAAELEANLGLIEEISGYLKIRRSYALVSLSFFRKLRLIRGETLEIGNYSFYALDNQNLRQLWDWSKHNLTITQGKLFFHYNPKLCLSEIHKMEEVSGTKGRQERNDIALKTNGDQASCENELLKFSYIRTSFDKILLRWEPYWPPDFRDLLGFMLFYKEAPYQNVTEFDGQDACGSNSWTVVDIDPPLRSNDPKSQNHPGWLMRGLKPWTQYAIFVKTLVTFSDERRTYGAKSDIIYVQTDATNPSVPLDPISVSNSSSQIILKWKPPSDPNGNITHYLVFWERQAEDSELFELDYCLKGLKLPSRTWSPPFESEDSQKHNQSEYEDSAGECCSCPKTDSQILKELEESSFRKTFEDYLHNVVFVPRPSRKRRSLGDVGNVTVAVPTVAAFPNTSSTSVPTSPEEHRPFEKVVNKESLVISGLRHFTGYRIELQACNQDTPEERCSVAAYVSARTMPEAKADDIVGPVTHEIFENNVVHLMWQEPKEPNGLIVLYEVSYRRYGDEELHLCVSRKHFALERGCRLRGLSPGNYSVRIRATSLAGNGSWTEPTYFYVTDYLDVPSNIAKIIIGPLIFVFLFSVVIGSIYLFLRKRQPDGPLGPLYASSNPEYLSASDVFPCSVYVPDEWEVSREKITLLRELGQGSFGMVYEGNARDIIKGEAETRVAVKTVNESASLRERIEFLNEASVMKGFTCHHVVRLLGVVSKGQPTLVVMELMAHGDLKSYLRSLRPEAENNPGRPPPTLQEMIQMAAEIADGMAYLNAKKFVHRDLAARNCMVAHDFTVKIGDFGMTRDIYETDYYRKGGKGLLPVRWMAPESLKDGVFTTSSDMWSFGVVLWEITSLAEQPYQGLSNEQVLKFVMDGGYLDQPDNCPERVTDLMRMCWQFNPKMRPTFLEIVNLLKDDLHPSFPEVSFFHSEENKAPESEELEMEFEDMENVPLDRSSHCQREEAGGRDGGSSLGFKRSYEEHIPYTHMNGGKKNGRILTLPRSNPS
T1 sequence (P06213 763-1382 partner limits assumed): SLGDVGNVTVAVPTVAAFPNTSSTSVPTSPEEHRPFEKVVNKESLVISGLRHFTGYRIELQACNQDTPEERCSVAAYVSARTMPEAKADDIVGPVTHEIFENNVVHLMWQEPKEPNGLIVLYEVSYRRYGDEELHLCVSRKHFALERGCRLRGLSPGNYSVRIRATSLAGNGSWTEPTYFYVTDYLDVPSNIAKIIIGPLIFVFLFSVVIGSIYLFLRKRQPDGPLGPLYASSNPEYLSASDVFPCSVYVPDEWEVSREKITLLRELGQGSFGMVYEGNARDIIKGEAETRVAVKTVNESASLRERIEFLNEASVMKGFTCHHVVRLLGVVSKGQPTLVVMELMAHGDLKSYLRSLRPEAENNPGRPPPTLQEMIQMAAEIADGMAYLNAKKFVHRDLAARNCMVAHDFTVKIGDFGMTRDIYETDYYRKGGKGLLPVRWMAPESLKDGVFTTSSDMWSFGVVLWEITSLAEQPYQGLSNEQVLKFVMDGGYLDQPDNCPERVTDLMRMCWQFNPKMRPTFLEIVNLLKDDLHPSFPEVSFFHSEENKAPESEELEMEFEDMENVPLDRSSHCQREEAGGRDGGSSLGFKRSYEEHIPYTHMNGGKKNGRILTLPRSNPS
Method: Phosphorylation was quantified using an ELISA technique. Ninety-six well, flat-bottom microplates (Greiner Bio-One) were pre-coated with 2 µg mL^−1 anti-C9 monoclonal antibody (Rho 1D4; University of British Columbia)[27] in 20 mM sodium carbonate, pH 9.6, at 4 °C for overnight prior to the assay. On the assay day, plates were washed 3× with 0.1% Tween in 50 mM Tris Buffer Saline, pH 7.5 (TBST), and then blocked for greater than 1 h at room temperature (RT) with 1% BSA (Sigma) in TBST.
Stably transfected HEK293 cells over-expressing human holoIR-A containing a C-terminal C9 epitope tag ([…]), were plated at 6 × 10^4 cells per well serum-starved using 0.1% BSA in DMEM (Gibco) for overnight at standard tissue culture condition. […] After a 15-min incubation in lysis buffer at 4 °C, the lysate was transferred to anti-C9 antibody coated capture plate (Rho 1D4; University of British Columbia)[27]. […] After a 1 h incubation at room temperature, the secondary antibody was removed by washing 3× with TBST. Signal detection occurred with the addition of TMB, an HRP substrate (Pierce). After 5–10 min, the reaction was stopped by adding an equal volume of 2 M H2SO4, and the absorbance readings at 450 nm (A450) were recorded using a Envision plate reader (PerkinElmer). Samples were tested in three independent assay runs on three different days.
Percent specific response (y-axis) was plotted versus the log concentration of compound (x-axis) using Prism Version 9.3.1 (GraphPad Software). Individual measurements are provided as Source Data.

[2] = target: T2, human IR-A (holoIR-A) (Homo sapiens, UniProt P06213); test: holoIR-A competitive radioligand binding assay (scintillation proximity assay); settings: for Ki: IM172N22(-) mutant peptide set; for reduction in ki for hIR-A on substitution: relative to control peptide IM172N22 devoid of N-terminal phenylacetylation
T2 construct: expressed in transfected cells; host or cells: HEK293 (ATCC #CRL-1573), stably transfected; membrane preparation
T2 sequence (P06213 28-1370 isoform P06213-2 limits assumed): as the sequence (P06213 28-1370 isoform P06213-2 limits assumed) above
T2 sequence (P06213 763-1382 partner limits assumed): as the sequence (P06213 763-1382 partner limits assumed) above
Method: Cellular membranes were prepared from human embryonic kidney (HEK293; ATCC #CRL-1573) cells stably transfected with cDNA corresponding to human IR-A (holoIR-A) plus a C-terminal C9 tag ([…]) inserted within a pcDNA3.1 plasmid (Invitrogen), with positive clones selected with 800 μg mL^−1 neomycin and confirmed by Western Blot. Frozen cell pellets were thawed in ice-cold homogenization/resuspension buffer (50 mM Tris-HCl, pH 7.5) containing one cOmplete® protease inhibitor tablet with EDTA (Roche Diagnostics) per 50 mL buffer. Cells were homogenized with an overhead motor-driven Teflon-glass homogenizer using 15–20 strokes, followed by centrifugation at 1100 × g for 10 min at 4 °C. The supernatant was saved on ice, pellets were homogenized as before, and centrifuged at 1100 × g for 10 min at 4 °C. Both supernatants were combined and subsequently centrifuged at 35,000 × g for 60 min at 4 °C. The pellet was resuspended in buffer (4 to 5 mL g^−1 of starting cell paste) containing protease inhibitors and quick frozen in liquid nitrogen prior to storage at −80 °C. Protein concentration was determined using a BCA kit (Thermo Scientific) with bovine serum albumin (BSA) as standard.
The assays were performed with a scintillation proximity assay (SPA) method using polyvinyltoluene (PVT) wheat germ agglutinin-coupled SPA beads (Perkin Elmer). Assay buffer containing 50 mM Tris-HCl (pH 7.5), 150 mM NaCl, 0.1% w/v fatty-acid free BSA was used for all compound testing and reagent preparation. Ten-point concentration response curves with three-fold serial dilutions of test samples or controls were prepared in the assay buffer. […] Plates were sealed and shaken for 1 min on a plate shaker. Following a 10-h incubation and bead settling period at room temperature, radioactivity was determined using a MicroBeta Trilux scintillation counter (Perkin Elmer) and expressed as counts per minute (CPM). […] Samples were tested in three independent assay runs on three different days.
All test sample concentration responses were normalized to the control response and calculated as a percent of the maximal response after correcting for nonspecific binding as shown below: %Specific Inhibition=100%−[(CPM−MIN)/(MAX−MIN)×100%]
Percent specific binding (y-axis) was plotted vs log concentration of compound (x-axis) using Prism Version 9.3.1 (GraphPad Software). Individual measurements are provided as Source Data.

[3] = mean of 3 runs, read-out: hIRA Binding Ki Mean
[4] = run 1, read-out: hIRA Binding Ki Run 1
[5] = run 2, read-out: hIRA Binding Ki Run 2
[6] = run 3, read-out: hIRA Binding Ki Run 3

Row | SMILES | hIRA Phosph IC50 Run 1 [1] [nM] | hIRA Phosph IC50 Run 2 [1] [nM] | hIRA Phosph IC50 Run 3 [1] [nM] | IC50 [1] [nM] | Ki [2, 3] [nM] | Ki [2, 4] [nM] | Ki [2, 5] [nM] | Ki [2, 6] [nM] | reduction in ki for hIR-A on substitution [2]
1 | CC[C@H](C)[C@H](NC(=O)[C@H](CCC(N)=O)NC(=O)[C@H](C)NC(=O)[C@H](Cc1c[nH]c2ccccc12)NC(=O)[C@H](CCC(=O)O)NC(=O)[C@H](CCC(=O)O)NC(=O)[C@H](CCC(=O)O)NC(=O)[C@H](CC(C)C)NC(=O)[C@H](CO)NC(C)=O)C(=O)N[C@@H](C)C(=O)N[C@H]1CSSC[C@@H](C(=O)N2CCC[C@H]2C(=O)N2CCC[C@H]2C(=O)N[C@@H](CO)C(=O)N[C@@H](CCC(=O)O)C(=O)N[C@@H](CO)C(N)=O)NC(=O)[C@H](CCCNC(=N)N)NC(=O)CNC(=O)[C@H](Cc2ccc(O)cc2)NC(=O)[C@H](C(C)C)NC(=O)[C@H](CCC(=O)O)NC1=O [Peptide E10A] (Ac-SLEEEWAQIACEVYGRCPPSES-NH2; disulfide 11-17) | 272 | 217 | 236 | 242 | 19 | 19.4 | 16.4 | 21.2 | lower than 5 fold
2 | CC[C@H](C)[C@H](NC(=O)[C@H](CCC(N)=O)NC(=O)[C@H](C)NC(=O)[C@H](Cc1c[nH]c2ccccc12)NC(=O)[C@H](CCC(=O)O)NC(=O)[C@H](CCC(=O)O)NC(=O)[C@H](CCC(=O)O)NC(=O)[C@H](CC(C)C)NC(=O)[C@H](CO)NC(C)=O)C(=O)N[C@@H](CCCNC(=N)N)C(=O)N[C@H]1CSSC[C@@H](C(=O)N2CCC[C@H]2C(=O)N2CCC[C@H]2C(=O)N[C@@H](CO)C(=O)N[C@@H](CCC(=O)O)C(=O)N[C@@H](CO)C(N)=O)NC(=O)[C@H](CCCNC(=N)N)NC(=O)CNC(=O)[C@H](Cc2ccc(O)cc2)NC(=O)[C@H](C(C)C)NC(=O)[C@H](CCC(=O)O)NC1=O [Peptide E10R] (Ac-SLEEEWAQIRCEVYGRCPPSES-NH2; disulfide 11-17) | 27 | 27 | 24 | 26.2 | 3.7 | 3.77 | 3.11 | 4.23 | –
3 | CC[C@H](C)[C@H](NC(=O)[C@H](CCC(N)=O)NC(=O)[C@H](C)NC(=O)[C@H](Cc1c[nH]c2ccccc12)NC(=O)[C@H](CCC(=O)O)NC(=O)[C@H](CCC(=O)O)NC(=O)[C@H](CCC(=O)O)NC(=O)[C@H](CC(C)C)NC(=O)[C@H](CO)NC(C)=O)C(=O)N[C@@H](CCC(=O)O)C(=O)N[C@H]1CSSC[C@@H](C(=O)N2CCC[C@H]2C(=O)N2CCC[C@H]2C(=O)N[C@@H](CO)C(=O)N[C@@H](CCC(=O)O)C(=O)N[C@@H](CO)C(N)=O)NC(=O)[C@H](CCCNC(=N)N)NC(=O)CNC(=O)[C@H](Cc2ccc(O)cc2)NC(=O)[C@H](C(C)C)NC(=O)[C@H](C)NC1=O [Peptide E12A] (Ac-SLEEEWAQIECAVYGRCPPSES-NH2; disulfide 11-17) | 343 | 247 | 295 | 295 | 50.3 | 44.9 | 52.2 | 53.9 | –
4 | CC[C@H](C)[C@H](NC(=O)[C@H](CCC(N)=O)NC(=O)[C@H](C)NC(=O)[C@H](Cc1c[nH]c2ccccc12)NC(=O)[C@H](CCC(=O)O)NC(=O)[C@H](CCC(=O)O)NC(=O)[C@H](CCC(=O)O)NC(=O)[C@H](CC(C)C)NC(=O)[C@H](CO)NC(C)=O)C(=O)N[C@@H](CCC(=O)O)C(=O)N[C@H]1CSSC[C@@H](C(=O)N2CCC[C@H]2C(=O)N2CCC[C@H]2C(=O)N[C@@H](CO)C(=O)N[C@@H](CCC(=O)O)C(=O)N[C@@H](CO)C(N)=O)NC(=O)[C@H](CCCNC(=N)N)NC(=O)CNC(=O)[C@H](Cc2ccc(O)cc2)NC(=O)[C@H](C(C)C)NC(=O)[C@H](CCCNC(=N)N)NC1=O [Peptide E12R] (Ac-SLEEEWAQIECRVYGRCPPSES-NH2; disulfide 11-17) | 2869 | 2922 | 2670 | 2820 | 132 | 117 | 126 | 152 | –
5 | CC[C@H](C)[C@H](NC(=O)[C@H](CCC(N)=O)NC(=O)[C@H](C)NC(=O)[C@H](Cc1c[nH]c2ccccc12)NC(=O)[C@H](CCC(=O)O)NC(=O)[C@H](CCC(=O)O)NC(=O)[C@H](CCC(=O)O)NC(=O)[C@H](CC(C)C)NC(=O)[C@H](CO)NC(C)=O)C(=O)N[C@@H](CCC(=O)O)C(=O)N[C@H]1CSSC[C@@H](C(=O)N2CCC[C@H]2C(=O)N2CCC[C@H]2C(=O)N[C@@H](CO)C(=O)N[C@@H](C)C(=O)N[C@@H](CO)C(N)=O)NC(=O)[C@H](CCCNC(=N)N)NC(=O)CNC(=O)[C@H](Cc2ccc(O)cc2)NC(=O)[C@H](C(C)C)NC(=O)[C@H](CCC(=O)O)NC1=O [Peptide E21A] (Ac-SLEEEWAQIECEVYGRCPPSAS-NH2; disulfide 11-17) | 147 | 122 | 132 | 134 | 17.5 | 19.79 | 18.2 | 14.7 | lower than 5 fold
6 | CC[C@H](C)[C@H](NC(=O)[C@H](CCC(N)=O)NC(=O)[C@H](C)NC(=O)[C@H](Cc1c[nH]c2ccccc12)NC(=O)[C@H](CCC(=O)O)NC(=O)[C@H](CCC(=O)O)NC(=O)[C@H](CCC(=O)O)NC(=O)[C@H](CC(C)C)NC(=O)[C@H](CO)NC(C)=O)C(=O)N[C@@H](CCC(=O)O)C(=O)N[C@H]1CSSC[C@@H](C(=O)N2CCC[C@H]2C(=O)N2CCC[C@H]2C(=O)N[C@@H](CO)C(=O)N[C@@H](CCCNC(=N)N)C(=O)N[C@@H](CO)C(N)=O)NC(=O)[C@H](CCCNC(=N)N)NC(=O)CNC(=O)[C@H](Cc2ccc(O)cc2)NC(=O)[C@H](C(C)C)NC(=O)[C@H](CCC(=O)O)NC1=O [Peptide E21R] (Ac-SLEEEWAQIECEVYGRCPPSRS-NH2; disulfide 11-17) | 28 | 27 | 29 | 28.1 | 8.9 | 8.75 | 8.05 | 9.91 | –
7 | CC[C@H](C)[C@H](NC(=O)[C@H](CCC(N)=O)NC(=O)[C@H](C)NC(=O)[C@H](Cc1c[nH]c2ccccc12)NC(=O)[C@H](CCC(=O)O)NC(=O)[C@H](CCC(=O)O)NC(=O)[C@H](CCC(=O)O)NC(=O)[C@H](CC(C)C)NC(=O)[C@H](CO)NC(C)=O)C(=O)N[C@@H](CCC(=O)O)C(=O)N[C@H]1CSSC[C@@H](C(=O)N2CCC[C@H]2C(=O)N2CCC[C@H]2C(=O)N[C@@H](CO)C(=O)N[C@@H](CCC(=O)O)C(=O)N[C@@H](CO)C(N)=O)NC(=O)[C@H](CCCNC(=N)N)NC(=O)[C@H](C)NC(=O)[C@H](Cc2ccc(O)cc2)NC(=O)[C@H](C(C)C)NC(=O)[C@H](CCC(=O)O)NC1=O [Peptide G15A] (Ac-SLEEEWAQIECEVYARCPPSES-NH2; disulfide 11-17) | 601 | 587 | 624 | 604 | 99.3 | 97.0 | 117 | 83.7 | 10 fold
